Reference: ChEMBL document CHEMBL1201862, “PubChem BioAssay data set” (2004)
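Five concentrations, 48 hours, 96-well plates. The concentration for 50% growth inhibition is given as GI50.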 Active and inactive are the calls of the source. Rule as the data show it: active = GI50 up to about 1.1 µM and inactive = higher.

Columns and labels:
Assay in all cases: DTP human tumour cell line panel, 48 h
[1] = tested on: SF-539
[2] = tested on: SF-295
[3] = tested on: HCC 2998
[4] = tested on: EKVX
[5] = tested on: UO-31
[6] = tested on: SNB-19
[7] = tested on: HCT-15
[8] = tested on: A549
[9] = tested on: UACC-62
[10] = tested on: M14
[11] = tested on: SF-268
[12] = tested on: CAKI-1
[13] = tested on: A498
[14] = tested on: SNB-75
[15] = tested on: SK-MEL-2
[16] = tested on: KM12
[17] = tested on: OVCAR-5
[18] = tested on: MCF7
[19] = tested on: NCI/ADR-RES

| SMILES | GI50 [1] | GI50 [2] | GI50 [3] | GI50 [4] | GI50 [5] | GI50 [6] | GI50 [7] | GI50 [8] | GI50 [9] | GI50 [10] | GI50 [11] | GI50 [12] | GI50 [13] | GI50 [14] | GI50 [15] | GI50 [16] | GI50 [17] | GI50 [18] | GI50 [19] |
| --- | --- | --- | --- | --- | --- | --- | --- | --- | --- | --- | --- | --- | --- | --- | --- | --- | --- | --- | --- |
| O=C1C=C(O)c2nc(O)ccc2C1=O | > 100 µM (inactive) | > 100 µM (inactive) | > 100 µM (inactive) | > 100 µM (inactive) | > 100 µM (inactive) | > 100 µM (inactive) | > 100 µM | > 100 µM (inactive) | > 100 µM (inactive) | > 100 µM (inactive) | > 100 µM (inactive) | > 100 µM (inactive) | > 100 µM (inactive) | > 100 µM (inactive) | – | – | – | – | – |
| CCc1cccc(C(C)C)c1C1C(=O)C(=O)N(c2nc3ccccc3s2)C(=O)C1=O | > 100 µM (inactive) | > 100 µM (inactive) | > 100 µM (inactive) | > 100 µM (inactive) | > 100 µM (inactive) | 71.9 µM (inactive) | > 100 µM | > 100 µM (inactive) | > 100 µM (inactive) | > 100 µM (inactive) | > 100 µM (inactive) | > 100 µM (inactive) | > 100 µM (inactive) | > 100 µM (inactive) | > 100 µM (inactive) | > 100 µM (inactive) | > 100 µM (inactive) | – | – |
| Cc1ccc(NC(=O)C(=O)C(C#N)c2ccccc2C)cc1C (stereo unspecified) | > 100 µM (inactive) | > 100 µM (inactive) | > 54.3 µM (inactive) | > 100 µM (inactive) | > 100 µM (inactive) | > 100 µM (inactive) | > 42.4 µM | > 91.6 µM (inactive) | > 100 µM (inactive) | > 100 µM (inactive) | > 100 µM (inactive) | > 100 µM (inactive) | > 100 µM (inactive) | > 69.3 µM (inactive) | > 100 µM (inactive) | > 100 µM (inactive) | > 100 µM (inactive) | – | – |
| O=C1C[C@H](c2ccc(O)c(O)c2)Oc2cc(O)cc(O)c21 | > 100 µM (inactive) | > 100 µM (inactive) | > 100 µM (inactive) | 83.8 µM (inactive) | 29.8 µM (inactive) | > 100 µM (inactive) | > 100 µM | > 100 µM (inactive) | 61.7 µM (inactive) | > 100 µM (inactive) | 63.5 µM (inactive) | > 100 µM (inactive) | > 100 µM (inactive) | 83.9 µM (inactive) | > 100 µM (inactive) | 78.2 µM (inactive) | > 100 µM (inactive) | – | – |
| CC(=O)OC1COC(N2C(=O)C(=O)c3ccccc32)C(OC(C)=O)C1OC(C)=O (stereo unspecified) | > 100 µM (inactive) | > 100 µM (inactive) | > 100 µM (inactive) | > 100 µM (inactive) | > 100 µM (inactive) | > 100 µM (inactive) | > 100 µM | > 100 µM (inactive) | 68.9 µM (inactive) | > 100 µM (inactive) | > 100 µM (inactive) | > 100 µM (inactive) | > 100 µM (inactive) | > 100 µM (inactive) | > 100 µM (inactive) | > 100 µM (inactive) | – | – | – |
| COc1cc(S(=O)(=O)Nc2ccc(-c3csc(/N=C\c4cccc(Oc5ccccc5)c4)n3)cc2)ccc1Cl | 33.9 µM (inactive) | 47.1 µM (inactive) | – | 8.39 µM (inactive) | 29.9 µM (inactive) | 8.85 µM (inactive) | 35.6 µM | 4.62 µM (inactive) | 6.44 µM (inactive) | 17 µM (inactive) | 34.6 µM (inactive) | 74.8 µM (inactive) | – | 30.8 µM (inactive) | 40.5 µM (inactive) | 31.8 µM (inactive) | 26.3 µM (inactive) | 5.2 µM (inactive) | 96.4 µM (inactive) |
| CN(C)c1nc(N(C)C)sc(=O)n1 | > 100 µM (inactive) | > 100 µM (inactive) | > 100 µM (inactive) | > 100 µM (inactive) | > 100 µM (inactive) | > 100 µM (inactive) | > 100 µM | > 100 µM (inactive) | > 100 µM (inactive) | > 100 µM (inactive) | > 100 µM (inactive) | > 100 µM (inactive) | > 100 µM (inactive) | > 100 µM (inactive) | > 100 µM (inactive) | > 100 µM (inactive) | > 100 µM (inactive) | – | – |
| O=C1c2ccccc2C(=O)N1C/C=N/NS(=O)(=O)c1ccc2ccccc2c1 | > 100 µM (inactive) | > 100 µM (inactive) | > 100 µM (inactive) | > 100 µM (inactive) | > 100 µM (inactive) | > 100 µM (inactive) | > 100 µM | > 100 µM (inactive) | > 100 µM (inactive) | > 100 µM (inactive) | – | > 100 µM (inactive) | > 100 µM (inactive) | > 100 µM (inactive) | > 100 µM (inactive) | > 100 µM (inactive) | > 100 µM (inactive) | – | – |
